In article PMC4929945, “Structural and functional analysis of the solute-binding protein UspC from Mycobacterium tuberculosis that is specific for amino sugars” (Open Biology, 2016):

What was measured:
[1] = target: T1, UspC (Mtb-UspC, Rv2318), solute-binding protein of the UspABC transporter (Mycobacterium tuberculosis, UniProt P71894); test: thermal shift saturation binding (Kd,app), Tm shift […]°C at […]
T1 construct: UspCNt, N-terminally truncated, residues 31–441, His6-tagged

[2] = target: T1, UspC (Mtb-UspC, Rv2318), solute-binding protein of the UspABC transporter; test: STD-NMR ([…] ligand, […] protein) and thermal shift

T1 sequence (P71894 entry or part of it): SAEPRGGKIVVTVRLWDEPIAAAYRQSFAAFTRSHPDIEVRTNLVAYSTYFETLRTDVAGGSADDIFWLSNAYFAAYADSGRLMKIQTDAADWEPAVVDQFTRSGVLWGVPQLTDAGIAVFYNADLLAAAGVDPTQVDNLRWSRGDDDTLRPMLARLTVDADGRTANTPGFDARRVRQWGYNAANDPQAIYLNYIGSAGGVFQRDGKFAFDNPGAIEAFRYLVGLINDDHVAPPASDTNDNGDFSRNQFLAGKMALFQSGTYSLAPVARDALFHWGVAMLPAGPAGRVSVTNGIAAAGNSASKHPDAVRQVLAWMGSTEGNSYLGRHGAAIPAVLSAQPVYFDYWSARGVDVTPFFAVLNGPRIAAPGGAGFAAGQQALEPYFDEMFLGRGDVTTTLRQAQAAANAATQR

| SMILES | Kd [1] | STD-NMR (50 mM ligand, 30 μM protein) and thermal shift [2] |
| --- | --- | --- |
| N[C@H]1C(O)O[C@H](COP(=O)(O)O)[C@@H](O)[C@@H]1O (stereo partly drawn) [D-glucosamine-6-phosphate] | 27.7 ± 6.4 mM | – |
| N[C@H]1C(O)O[C@H](CO)[C@@H](O)[C@@H]1O (stereo partly drawn) [D-glucosamine] | – | H2 (α and β) and H4 (α and β) of D-glucosamine interact non-covalently with Mtb-UspCNt |
